Measured values: patent US8680242B2, “Plasminogen receptor, polypeptides and antibodies thereof” (priority 2008, dated 2014)
Ends that are not written are not given here.

B1: K5: plasminogen fragment within Val442-Asn790, kringle 5 and the latent protease domain (protein)
chain: VVAPPPVVLLPDVETPSEEDCMFGNGKGYRGKRATTVTGTPCQDWAAQEPHRHSIFTPETNPRAGLEKNYCRNPDGDVGGPWCYTTNPRKLYDYCDVPQCAAPSFDCGKPQVEPKKCPGRVVGGCVAHPHSWPWQVSLRTRFGMHFCGGTLISPEWVLTAAHCLEKSPRPSSYKVILGAHQEVNLEPHVQEIEVSRLFLEPTRKDIALLKLSSPAVITDKVIPACLPSPNYVVADRTECFITGWGETQGTFGAGLLKEAQLPVIENKVCNRYEFLNGRVQSTELCAGHLAGGTDSCQGDSGGPLVCFEKDKYILQGVTSWGLGCARPNKPGVYVRVSRFVTWIEGVMRN
B2: K1-3: plasminogen fragment Tyr79-Val337 or Tyr79-Val353, obtained by elastase digestion (protein)
chain: YLSECKTGNGKNYRGTMSKTKNGITCQKWSSTSPHRPRFSPATHPSEGLEENYCRNPDNDPQGPWCYTTDPEKRYDYCDILECEEECMHCSGENYDGKISKTMSGLECQAWDSQSPHAHGYIPSKFPNKNLKKNYCRNPDRELRPWCFTTDPNKRWELCDIPRCTTPPPSSGPTYQCLKGTGENYRGNVAVTVSGHTCQHWSAQTPHTHNRTPENFPCKNLDENYCRNPDGKRAPWCHTTNSQVRWEYCKIPSCDSSPV

Columns and labels:
Plasminogen = target: T1, Plasminogen (Homo sapiens, UniProt P00747); assay: Plasminogen binding to BSA-coupled C-terminal Plg-RKT peptide coated on microtiter wells, detected with anti-plasminogen MAb
T1 construct: host or cells: peptide is synthetic
Description: Our isolation method was consistent with exposure of the carboxyl-terminus of Plg-RKT (with its carboxyl-terminal lysine) on the cell surface and also with the ability of the carboxyl-terminal domain to bind to plasminogen. For verification, we tested whether a synthetic peptide, corresponding to the C-terminus of Plg-RKT could bind plasminogen. The peptide, CEQSKLFSDK (SEQ ID NO: 33) corresponding to the ten C-terminal amino acids of Plg-RKT with cysteine substituted for R138) was coupled to bovine serum albumin (BSA) and then coated onto wells of microtiter plates at 10 μg/ml. The wells were blocked with 5% BSA. Plasminogen (0.2 μM) was incubated with the wells, followed by our anti-plasminogen MAb^36 and detection with HRP-conjugated goat anti-mouse IgG (Biosource, Camarillo, Calif.). Plasminogen bound to the peptide in a concentration dependent manner with 50% maximal binding achieved at a plasminogen concentration of ˜10 nM. The binding was specific because it was blocked in the presence of epsilon-aminocaproic acid (EACA), consistent with the ability of EACA to inhibit plasminogen binding to differentiated Hoxa9-ER4 cells. […] In controls for the detection method, O.D.490 values obtained using an isotype control antibody or in the absence of added plasminogen were <5% of the values for plasminogen binding to the BSA-coupled peptide detected with anti-plasminogen MAb.

biotinylated plasminogen = target: T2, biotinylated plasminogen (Homo sapiens, UniProt P00747); assay: Direct binding of biotinylated plasminogen to immobilized peptide (streptavidin-HRP)
T2 construct: host or cells: peptide is synthetic
Method: (§1) Mab36Al2 or control rat IgG2A was incubated with the Plg-RKT polypeptide, CEQSKLFSDK (SEQ ID NO: 33), coupled to BSA and immobilized on microtiter wells. In these assays, 200 nM biotinylated plasminogen was then added and plasminogen binding was detected with streptavidin-HRP.
(§2) In other assays to define the ligand recognition specificity of Plg-RKT for plasminogen. the Plg-RKT polypeptide, CEQSKLFSDK (SEQ ID NO: 33), was coupled to microtiter wells. Plasminogen was directly biotinylated and then incubated with the immobilized peptide and detected with streptavidin-HRP, as above. […] (K1-3 is comprised of the plasminogen amino acid sequences, Tyr^79-Val^337 or Tyr^79-Val^353. K4 is contained within the plasminogen amino acid sequences, Val^354-Ala^439. K5-PD is contained within the plasminogen amino acid sequences, Val^442-Asn^790 and contains kringle 5 as well as the latent protease domain.)

[1] = test system: plasminogen binding to the Plg-RKT polypeptide, CEQSKLFSDK (SEQ ID NO: 33); assay: Inhibition of biotinylated plasminogen binding to immobilized Plg-RKT C-terminal peptide (streptavidin-HRP); set-up: species or system mouse
Method: as §1
(§3) We tested the ability of a peptide, CEQSRFFIDK (SEQ ID NO: 34), corresponding to the C terminus of human Plg-RKT (residues 139-147), to inhibit the binding of biotinylated-plasminogen to the C-terminal peptide CEQSKLFSDK (SEQ ID NO: 33), of mouse Plg-RKT when CEQSKLFSDK (SEQ ID NO: 33), was coupled to BSA and immobilized to microtiter plates as described above. […] Thus, the interaction of plasminogen with the C-terminal peptide of Plg-RKT requires the presence of a C-terminal lysine residue.
as §2

[2] = target: T3, plasminogen binding to the Plg-RKT polypeptide, CEQSKLFSDK (SEQ ID NO: 33) (Mus musculus, UniProt Q9D3P8, R138C); assay: as above; conditions: plasminogen domains from elastase digestion
T3 construct: host or cells: peptide is synthetic
Method: as §1, §3, §2

T2 sequence (P00747 20-810 limits assumed): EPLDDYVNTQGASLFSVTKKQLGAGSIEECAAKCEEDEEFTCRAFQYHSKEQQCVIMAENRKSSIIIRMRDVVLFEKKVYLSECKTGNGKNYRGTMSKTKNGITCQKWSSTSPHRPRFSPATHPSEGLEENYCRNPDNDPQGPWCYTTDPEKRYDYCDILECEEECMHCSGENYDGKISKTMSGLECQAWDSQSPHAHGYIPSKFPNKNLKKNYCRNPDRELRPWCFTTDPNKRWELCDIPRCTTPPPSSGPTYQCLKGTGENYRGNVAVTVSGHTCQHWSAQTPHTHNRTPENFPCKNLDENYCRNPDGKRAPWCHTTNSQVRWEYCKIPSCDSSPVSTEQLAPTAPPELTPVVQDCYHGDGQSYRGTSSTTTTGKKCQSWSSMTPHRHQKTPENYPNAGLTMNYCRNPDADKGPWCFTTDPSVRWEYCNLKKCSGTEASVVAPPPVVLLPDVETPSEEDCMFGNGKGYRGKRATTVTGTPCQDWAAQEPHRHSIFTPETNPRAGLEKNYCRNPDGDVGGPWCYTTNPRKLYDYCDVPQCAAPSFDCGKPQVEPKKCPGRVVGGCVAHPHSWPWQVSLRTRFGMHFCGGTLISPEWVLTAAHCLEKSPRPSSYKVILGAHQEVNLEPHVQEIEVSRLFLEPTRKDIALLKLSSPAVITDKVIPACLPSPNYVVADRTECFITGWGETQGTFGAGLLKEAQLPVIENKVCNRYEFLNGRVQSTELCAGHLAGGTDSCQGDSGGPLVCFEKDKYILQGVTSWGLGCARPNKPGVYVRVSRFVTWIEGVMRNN
T1 sequence (P00747 20-810 limits assumed): as above

| Molecule | inhibition of plasminogen binding to immobilized CEQSKLFSDK (in words) [1] | order of effectiveness in inhibiting plasminogen interaction with immobilized CEQSKLFSDK [2] | other results |
| --- | --- | --- | --- |
| NCCCCCC(=O)O [epsilon-aminocaproic acid] | – | – | effect on plasminogen binding to the peptide CEQSKLFSDK (Plasminogen; in the presence of EACA): blocked |
| CEQSKLFSDK [CEQSKLFSDK] | – | – | biotinylated-Plg binding to the immobilized peptide (biotinylated plasminogen): concentration-dependent manner |
| CEQSRFFIDA [mutant peptide with the C-terminal K replaced with A, reference compound] | not affected | – | – |
| CEQSRFFIDK [CEQSRFFIDK] | inhibited in a dose-dependent manner | – | – |
| CEQSRFFIDK [peptide with R142 replaced with K, human C-terminal peptide with R142 replaced with K] | more effective competitor | – | – |
| KDSFLKSQEC (listed as Mus musculus) [reverse peptide control, reference compound] | – | – | nonspecific plasminogen binding, relative to binding to CEQSKLFSDK (Plasminogen; control peptide on wells): < 10%; biotinylated-Plg binding to the immobilized peptide (biotinylated plasminogen): no biotinylated-Plg binding |
| Plg: plasminogen, precursor of plasmin with five kringle domains and a serine protease domain | – | Plg>K1-3>K5>K4 | – |
| B1 | – | Plg>K1-3>K5>K4 | – |
| B2 | – | Plg>K1-3>K5>K4 | – |
